Test results: PMC11859928, “Design, Synthesis, and Antiproliferative Activity of Novel Indole/1,2,4-Triazole Hybrids as Tubulin Polymerization Inhibitors” (Pharmaceuticals, 2025)

Experiments:
Assay in all cases: NCI one-dose assay
Assay type in all cases: cell-based
NCI/ADR-RES = details: Homo sapiens, Ovarian cancer, read-out: Cell growth inhibition %
Procedure: (§1) The National Cancer Institute (NCI), Bethesda, USA, selected the final compounds 6a–j and 7a–j for in vitro anticancer screening. An initial in vitro single-dose anticancer experiment was performed with the entire NCI 60 cell lines derived from nine tumor subpanel cancer cell lines. The results for each compound were illustrated as a mean graph showing the percentage growth of treated cells compared to untreated control cells (see Supplementary Materials).
(§2) The NCI anticancer screening process has been thoroughly detailed. The Drug Evaluation Branch of the National Cancer Institute in Bethesda, […], USA, established the procedure and conducted the anticancer assay on 60 human tumor cell lines from nine neoplastic cancers.

OVCAR-4 = details: Homo sapiens, OVCAR-4, Ovarian cancer, read-out: Cell growth inhibition %
Procedure: as §1, §2

HCT-116 = details: Homo sapiens, HCT-116, Colon cancer, read-out: Cell growth inhibition %
Procedure: as §1, §2

CCRF-CEM = details: Homo sapiens, Leukemia, read-out: Cell growth inhibition %
Procedure: as §1, §2

SNB-75 = details: Homo sapiens, SNB-75, CNS cancer, read-out: Cell growth inhibition %
Procedure: as §1, §2

HT29 = details: Homo sapiens, HT-29, HT29, Colon cancer, read-out: Cell growth inhibition %
Procedure: as §1, §2

OVCAR-5 = details: Homo sapiens, OVCAR-5, Ovarian cancer, read-out: Cell growth inhibition %
Procedure: as §1, §2

HCT-15 = details: Homo sapiens, HCT-15, Colon cancer, read-out: Cell growth inhibition %
Procedure: as §1, §2

IGROV1 = details: Homo sapiens, IGROV-1, IGROV1, Ovarian cancer, read-out: Cell growth inhibition %
Procedure: as §1, §2

HS 578 T = details: Homo sapiens, Breast cancer, read-out: Cell growth inhibition %
Procedure: as §1, §2

HCC-2998 = details: Homo sapiens, HCC-2998, Colon cancer, read-out: Cell growth inhibition %
Procedure: as §1, §2

UACC-62 = details: Homo sapiens, UACC-62, Melanoma, read-out: Cell growth inhibition %
Procedure: as §1, §2

SR = details: Homo sapiens, Leukemia, read-out: Cell growth inhibition %
Procedure: as §1, §2

MDA-MB-468 = details: Homo sapiens, MDA-MB-468, Breast cancer, read-out: Cell growth inhibition %
Procedure: as §1, §2

TK-10 = details: Homo sapiens, TK-10, Renal cancer, read-out: Cell growth inhibition %
Procedure: as §1, §2

UACC-257 = details: Homo sapiens, UACC-257, Melanoma, read-out: Cell growth inhibition %
Procedure: as §1, §2

SNB-19 = details: Homo sapiens, SNB-19, CNS cancer, read-out: Cell growth inhibition %
Procedure: as §1, §2

SK-OV-3 = details: Homo sapiens, SK-OV-3, Ovarian cancer, read-out: Cell growth inhibition %
Procedure: as §1, §2

SF-539 = details: Homo sapiens, SF-539, CNS cancer, read-out: Cell growth inhibition %
Procedure: as §1, §2

MDA-MB-231/ATCC = details: Homo sapiens, Breast cancer, read-out: Cell growth inhibition %
Procedure: as §1, §2

BT-549 = details: Homo sapiens, BT-549, Breast cancer, read-out: Cell growth inhibition %
Procedure: as §1, §2

SN12C = details: Homo sapiens, Renal cancer, read-out: Cell growth inhibition %
Procedure: as §1, §2

OVCAR-8 = details: Homo sapiens, OVCAR-8, Ovarian cancer, read-out: Cell growth inhibition %
Procedure: as §1, §2

SK-MEL-2 = details: Homo sapiens, SK-MEL-2, Melanoma, read-out: Cell growth inhibition %
Procedure: as §1, §2

DU-145 = details: Homo sapiens, DU-145, Prostate cancer, read-out: Cell growth inhibition %
Procedure: as §1, §2

HOP-62 = details: Homo sapiens, HOP-62, Non-small cell lung cancer, read-out: Cell growth inhibition %
Procedure: as §1, §2

MALME-3M = details: Homo sapiens, Melanoma, read-out: Cell growth inhibition %
Procedure: as §1, §2

MDA-MB-435 = details: Homo sapiens, MDA-MB-435, Melanoma, read-out: Cell growth inhibition %
Procedure: as §1, §2

CAKI-1 = details: Homo sapiens, CAKI-1, Renal cancer, read-out: Cell growth inhibition %
Procedure: as §1, §2

T-47D = details: Homo sapiens, T47D, Breast cancer, read-out: Cell growth inhibition %
Procedure: as §1, §2

KM12 = details: Homo sapiens, KM12, Colon cancer, read-out: Cell growth inhibition %
Procedure: as §1, §2

SK-MEL-5 = details: Homo sapiens, SK-MEL-5, Melanoma, read-out: Cell growth inhibition %
Procedure: as §1, §2

SW-620 = details: Homo sapiens, SW-620, Colon cancer, read-out: Cell growth inhibition %
Procedure: as §1, §2

K-562 = details: Homo sapiens, K562, K-562, Leukemia, read-out: Cell growth inhibition %
Procedure: as §1, §2

NCI-H23 = details: Homo sapiens, NCI-H23, Non-small cell lung cancer, read-out: Cell growth inhibition %
Procedure: as §1, §2

MOLT-4 = details: Homo sapiens, MOLT-4, Leukemia, read-out: Cell growth inhibition %
Procedure: as §1, §2

Row | Compound | inhibition at 10 µM (NCI/ADR-RES) | inhibition at 10 µM (OVCAR-4) | inhibition at 10 µM (HCT-116) | inhibition at 10 µM (CCRF-CEM) | inhibition at 10 µM (SNB-75) | inhibition at 10 µM (HT29) | inhibition at 10 µM (OVCAR-5) | inhibition at 10 µM (HCT-15) | inhibition at 10 µM (IGROV1) | inhibition at 10 µM (HS 578 T) | inhibition at 10 µM (HCC-2998) | inhibition at 10 µM (UACC-62) | inhibition at 10 µM (SR) | inhibition at 10 µM (MDA-MB-468) | inhibition at 10 µM (TK-10) | inhibition at 10 µM (UACC-257) | inhibition at 10 µM (SNB-19) | inhibition at 10 µM (SK-OV-3) | inhibition at 10 µM (SF-539) | inhibition at 10 µM (MDA-MB-231/ATCC) | further results
1 | Cc1ccc(C(=O)CSc2nnc(-c3c[nH]c4ccccc34)n2-c2ccccc2)cc1 [Compound 6h, 2-((5-(1H-Indol-3-yl)-4-phenyl-4H-1,2,4-triazol-3-yl)thio)-1-(p-tolyl)ethenone] | 128% | 116% | 92.3% | 39.2% | 101% | 92.9% | 87% | 56.2% | 75.8% | 101% | 33.6% | 76.1% | 47% | 52% | 102% | 22.7% | 80.3% | 76% | 77.9% | 102% | inhibition at 10 µM (BT-549): 77.6%; inhibition at 10 µM (SN12C): 75.1%; inhibition at 10 µM (OVCAR-8): 88.7%; inhibition at 10 µM (SK-MEL-2): 15.3%; inhibition at 10 µM (DU-145): 21.1%; inhibition at 10 µM (HOP-62): 92.2%; inhibition at 10 µM (MALME-3M): 64.8%; inhibition at 10 µM (MDA-MB-435): 61.4%; inhibition at 10 µM (CAKI-1): 87.6%; inhibition at 10 µM (T-47D): 53.3%; inhibition at 10 µM (KM12): 49%; inhibition at 10 µM (SK-MEL-5): 67.1%; inhibition at 10 µM (SW-620): 81%; inhibition at 10 µM (K-562): 72.8%; inhibition at 10 µM (NCI-H23): 82.7%; inhibition at 10 µM (MOLT-4): 38.3%
2 | O=C(CSc1nnc(-c2c[nH]c3ccccc23)n1-c1ccccc1)c1ccc(Br)cc1 [Compound 6i, 2-((5-(1H-Indol-3-yl)-4-phenyl-4H-1,2,4-triazol-3-yl)thio)-1-(4-bromophenyl) Ethenone] | 100% | 53.8% | 45.7% | 13.6% | 61.2% | 42.6% | 41.7% | 56% | 35.9% | 47.7% | 68.3% | 64.8% | 9.15% | 78% | 35.1% | 47.5% | 29.8% | 51.4% | 38% | 34% | inhibition at 10 µM (BT-549): 34.8%; inhibition at 10 µM (SN12C): 27.1%; inhibition at 10 µM (OVCAR-8): 56.5%; inhibition at 10 µM (SK-MEL-2): 119%; inhibition at 10 µM (DU-145): 41.5%; inhibition at 10 µM (HOP-62): 26.4%; inhibition at 10 µM (MALME-3M): 29%; inhibition at 10 µM (MDA-MB-435): 59.1%; inhibition at 10 µM (CAKI-1): 55.7%; inhibition at 10 µM (T-47D): 78%; inhibition at 10 µM (KM12): 65.4%; inhibition at 10 µM (SK-MEL-5): 82.8%; inhibition at 10 µM (SW-620): 20.2%; inhibition at 10 µM (K-562): 18%; inhibition at 10 µM (NCI-H23): 46%; inhibition at 10 µM (MOLT-4): 7.77%
3 | O=C(CSc1nnc(-c2c[nH]c3ccccc23)n1-c1ccccc1)c1ccc(Cl)cc1 [Compound 6j, 2-((5-(1H-indol-3-yl)-4-phenyl-4H-1,2,4-triazol-3-yl)thio)-1-(4-chlorophenyl) Ethenone] | 94.2% | 85.1% | 54.2% | 7.26% | 45.3% | 57.4% | 9.28% | 26.7% | 48.6% | 66.8% | 21.9% | 47.2% | 7.63% | 53.6% | 16% | 27.7% | 60% | 27.9% | 50.5% | 48.3% | inhibition at 10 µM (BT-549): 30.2%; inhibition at 10 µM (SN12C): 35.4%; inhibition at 10 µM (OVCAR-8): 75.5%; inhibition at 10 µM (SK-MEL-2): 66.3%; inhibition at 10 µM (DU-145): 11.6%; inhibition at 10 µM (HOP-62): 53%; inhibition at 10 µM (MALME-3M): 36%; inhibition at 10 µM (MDA-MB-435): 20.8%; inhibition at 10 µM (CAKI-1): 35.5%; inhibition at 10 µM (T-47D): 45.4%; inhibition at 10 µM (KM12): 21.3%; inhibition at 10 µM (SK-MEL-5): 21.8%; inhibition at 10 µM (SW-620): 29.7%; inhibition at 10 µM (K-562): 31%; inhibition at 10 µM (NCI-H23): 59.2%; inhibition at 10 µM (MOLT-4): -3.56%
4 | C=CCn1c(SC/C(=N\O)c2ccccc2)nnc1-c1c[nH]c2ccccc12 [Compound 7a, (Z)-2-((4-Allyl-5-(1H-indol-3-yl)-4H-1,2,4-triazol-3-yl)thio)-1-phenylethanone Oxime] | -6.66% | -8.19% | 9.24% | 0.66% | -3.17% | -3.61% | -3.15% | 4.41% | 7.6% | 5.73% | 0.84% | 13.6% | -10.3% | 15.4% | -12.2% | -13.1% | 6.82% | 2.21% | 3.26% | 3.9% | inhibition at 10 µM (BT-549): -3.51%; inhibition at 10 µM (SN12C): 2.4%; inhibition at 10 µM (OVCAR-8): 1.16%; inhibition at 10 µM (SK-MEL-2): -6.77%; inhibition at 10 µM (DU-145): -5.82%; inhibition at 10 µM (HOP-62): 9.66%; inhibition at 10 µM (MALME-3M): 7.6%; inhibition at 10 µM (MDA-MB-435): -5.56%; inhibition at 10 µM (CAKI-1): 6.71%; inhibition at 10 µM (T-47D): 8.67%; inhibition at 10 µM (KM12): -2.55%; inhibition at 10 µM (SK-MEL-5): 1.57%; inhibition at 10 µM (SW-620): 0.27%; inhibition at 10 µM (K-562): 3.29%; inhibition at 10 µM (NCI-H23): -1.28%; inhibition at 10 µM (MOLT-4): 2.51%
